“And” between values parts separate entries of the source, which are not always exact repeats. Identical values can stand only once.
Experiments:
CDK2/cyclin O = biological target: T1, CDK2/cyclin O (Homo sapiens, UniProt P24941); assay: HotSpot kinase assay; format: biochemical; details: read-out: % Enzyme Activity (relative to DMSO controls)
T1 construct: purchased Reaction Biology Corporation

CDK6/cyclin D3 = biological target: T2, CDK6/cyclin D3 (Homo sapiens, UniProt Q00534); assay: HotSpot kinase assay; format: biochemical; details: read-out: % Enzyme Activity (relative to DMSO controls)
T2 construct: purchased Reaction Biology Corporation

DDR1 = biological target: T3, DDR1 (Homo sapiens, UniProt Q08345); assay: HotSpot kinase assay; format: biochemical; details: read-out: % Enzyme Activity (relative to DMSO controls)
T3 construct: purchased Reaction Biology Corporation

DMPK2 = biological target: T4, DMPK2 (Homo sapiens, UniProt Q6DT37); assay: HotSpot kinase assay; format: biochemical; details: read-out: % Enzyme Activity (relative to DMSO controls)
T4 construct: purchased Reaction Biology Corporation

EGFR = biological target: T5, EGFR (Homo sapiens, UniProt P00533); assay: biochemical
T5 construct: purchased Reaction Biology Corporation
T5 sequence (P00533 25-1210): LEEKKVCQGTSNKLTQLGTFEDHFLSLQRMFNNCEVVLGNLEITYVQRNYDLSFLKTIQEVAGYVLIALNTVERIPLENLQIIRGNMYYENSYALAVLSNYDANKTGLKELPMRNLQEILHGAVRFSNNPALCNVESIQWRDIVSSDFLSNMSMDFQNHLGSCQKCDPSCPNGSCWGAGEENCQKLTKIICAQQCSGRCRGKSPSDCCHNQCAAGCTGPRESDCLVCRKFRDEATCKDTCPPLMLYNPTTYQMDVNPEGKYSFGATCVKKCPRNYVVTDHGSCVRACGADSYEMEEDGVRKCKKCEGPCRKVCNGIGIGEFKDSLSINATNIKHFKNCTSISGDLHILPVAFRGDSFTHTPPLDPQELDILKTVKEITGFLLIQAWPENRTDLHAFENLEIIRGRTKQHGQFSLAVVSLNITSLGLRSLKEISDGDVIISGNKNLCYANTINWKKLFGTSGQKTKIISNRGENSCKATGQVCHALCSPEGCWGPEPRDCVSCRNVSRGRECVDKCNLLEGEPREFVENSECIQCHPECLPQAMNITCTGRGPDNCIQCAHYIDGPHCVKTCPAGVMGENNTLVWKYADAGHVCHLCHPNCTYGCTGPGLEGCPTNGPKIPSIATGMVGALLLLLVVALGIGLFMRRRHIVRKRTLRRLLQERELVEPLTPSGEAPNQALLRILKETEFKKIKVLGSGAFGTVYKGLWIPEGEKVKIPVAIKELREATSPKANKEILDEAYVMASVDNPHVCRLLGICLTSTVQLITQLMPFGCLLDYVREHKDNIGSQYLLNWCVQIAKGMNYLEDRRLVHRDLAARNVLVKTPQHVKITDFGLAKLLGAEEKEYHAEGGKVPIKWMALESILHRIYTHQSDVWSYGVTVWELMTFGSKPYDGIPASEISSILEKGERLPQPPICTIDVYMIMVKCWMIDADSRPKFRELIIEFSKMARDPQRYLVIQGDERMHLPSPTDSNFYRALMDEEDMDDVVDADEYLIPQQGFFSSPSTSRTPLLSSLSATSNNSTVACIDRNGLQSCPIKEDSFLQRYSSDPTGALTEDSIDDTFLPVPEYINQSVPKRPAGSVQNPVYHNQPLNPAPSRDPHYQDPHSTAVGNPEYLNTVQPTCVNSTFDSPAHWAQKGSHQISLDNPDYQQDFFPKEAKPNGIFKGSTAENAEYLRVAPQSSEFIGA

ERBB4/HER4 = biological target: T6, ERBB4/HER4 (Homo sapiens, UniProt Q15303); assay: HotSpot kinase assay; format: biochemical; details: read-out: % Enzyme Activity (relative to DMSO controls)
T6 construct: purchased Reaction Biology Corporation

ERK2/MAPK1 = biological target: T7, ERK2/MAPK1 (Homo sapiens, UniProt P28482); assay: HotSpot kinase assay; format: biochemical; details: read-out: % Enzyme Activity (relative to DMSO controls)
T7 construct: purchased Reaction Biology Corporation
T7 sequence (P28482 whole entry): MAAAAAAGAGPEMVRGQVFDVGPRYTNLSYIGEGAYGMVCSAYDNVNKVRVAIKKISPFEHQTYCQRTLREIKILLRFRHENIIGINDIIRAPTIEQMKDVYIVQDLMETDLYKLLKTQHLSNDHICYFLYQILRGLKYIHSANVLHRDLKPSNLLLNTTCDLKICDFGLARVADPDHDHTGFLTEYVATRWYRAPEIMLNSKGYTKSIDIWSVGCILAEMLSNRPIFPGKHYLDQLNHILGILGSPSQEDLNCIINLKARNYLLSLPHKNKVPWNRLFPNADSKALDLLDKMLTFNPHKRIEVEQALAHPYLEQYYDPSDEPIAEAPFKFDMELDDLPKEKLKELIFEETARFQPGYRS

ERN2/IRE2 = biological target: T8, ERN2/IRE2 (Homo sapiens, UniProt Q76MJ5); assay: HotSpot kinase assay; format: biochemical; details: read-out: % Enzyme Activity (relative to DMSO controls)
T8 construct: purchased Reaction Biology Corporation
T8 sequence (Q76MJ5 35-926): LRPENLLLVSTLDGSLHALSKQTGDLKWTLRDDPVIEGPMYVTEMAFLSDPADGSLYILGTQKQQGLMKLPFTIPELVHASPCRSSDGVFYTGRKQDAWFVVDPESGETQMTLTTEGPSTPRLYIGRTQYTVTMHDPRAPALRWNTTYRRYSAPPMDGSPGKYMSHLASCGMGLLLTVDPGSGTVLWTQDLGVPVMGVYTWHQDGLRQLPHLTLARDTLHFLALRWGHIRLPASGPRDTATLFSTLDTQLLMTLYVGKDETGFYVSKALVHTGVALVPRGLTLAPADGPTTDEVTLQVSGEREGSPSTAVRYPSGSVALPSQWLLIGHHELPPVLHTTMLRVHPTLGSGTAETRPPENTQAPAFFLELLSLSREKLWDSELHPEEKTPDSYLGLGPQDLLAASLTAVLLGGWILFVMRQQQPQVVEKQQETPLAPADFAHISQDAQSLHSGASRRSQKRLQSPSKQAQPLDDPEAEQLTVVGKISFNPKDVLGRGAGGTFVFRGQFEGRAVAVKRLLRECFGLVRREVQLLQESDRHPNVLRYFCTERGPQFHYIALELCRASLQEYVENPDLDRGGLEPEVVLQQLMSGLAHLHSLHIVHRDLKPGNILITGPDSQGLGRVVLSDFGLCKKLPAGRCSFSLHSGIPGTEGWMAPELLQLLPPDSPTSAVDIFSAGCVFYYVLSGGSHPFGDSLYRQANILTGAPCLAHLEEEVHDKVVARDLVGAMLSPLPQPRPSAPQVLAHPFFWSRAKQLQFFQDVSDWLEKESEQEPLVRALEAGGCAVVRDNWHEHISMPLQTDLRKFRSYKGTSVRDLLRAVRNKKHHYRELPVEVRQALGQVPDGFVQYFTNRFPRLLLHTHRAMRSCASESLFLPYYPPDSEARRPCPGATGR

FGR = biological target: T9, FGR (Homo sapiens, UniProt P09769); assay: HotSpot kinase assay; format: biochemical; details: read-out: % Enzyme Activity (relative to DMSO controls)
T9 construct: purchased Reaction Biology Corporation
T9 sequence (P09769 whole entry): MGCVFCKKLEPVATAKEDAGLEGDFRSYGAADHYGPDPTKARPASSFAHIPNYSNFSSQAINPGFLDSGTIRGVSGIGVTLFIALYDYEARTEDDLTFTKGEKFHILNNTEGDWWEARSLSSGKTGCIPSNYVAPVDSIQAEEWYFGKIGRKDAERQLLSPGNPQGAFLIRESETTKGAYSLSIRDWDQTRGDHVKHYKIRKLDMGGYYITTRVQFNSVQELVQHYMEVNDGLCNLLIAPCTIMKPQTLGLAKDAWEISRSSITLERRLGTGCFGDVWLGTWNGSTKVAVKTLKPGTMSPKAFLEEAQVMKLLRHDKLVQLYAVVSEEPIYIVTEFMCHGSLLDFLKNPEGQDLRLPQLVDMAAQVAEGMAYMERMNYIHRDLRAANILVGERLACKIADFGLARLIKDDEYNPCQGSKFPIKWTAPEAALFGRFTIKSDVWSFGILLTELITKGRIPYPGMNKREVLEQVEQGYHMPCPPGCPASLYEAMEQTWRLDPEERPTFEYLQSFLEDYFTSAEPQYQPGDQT

GLK/MAP4K3 = biological target: T10, GLK/MAP4K3 (Homo sapiens, UniProt Q8IVH8); assay: HotSpot kinase assay; format: biochemical; details: read-out: % Enzyme Activity (relative to DMSO controls)
T10 construct: purchased Reaction Biology Corporation

HIPK3 = biological target: T11, HIPK3 (Homo sapiens, UniProt Q9H422); assay: HotSpot kinase assay; format: biochemical; details: read-out: % Enzyme Activity (relative to DMSO controls)
T11 construct: purchased Reaction Biology Corporation

IKKa/CHUK = biological target: T12, IKKa/CHUK (Homo sapiens, UniProt O15111); assay: HotSpot kinase assay; format: biochemical; details: read-out: % Enzyme Activity (relative to DMSO controls)
T12 construct: purchased Reaction Biology Corporation

MLCK/MYLK = biological target: T13, MLCK/MYLK (Homo sapiens, UniProt Q15746); assay: HotSpot kinase assay; format: biochemical; details: read-out: % Enzyme Activity (relative to DMSO controls)
T13 construct: purchased Reaction Biology Corporation

MUSK = biological target: T14, MUSK (Homo sapiens, UniProt O15146); assay: HotSpot kinase assay; format: biochemical; details: read-out: % Enzyme Activity (relative to DMSO controls)
T14 construct: purchased Reaction Biology Corporation
T14 sequence (O15146 24-869): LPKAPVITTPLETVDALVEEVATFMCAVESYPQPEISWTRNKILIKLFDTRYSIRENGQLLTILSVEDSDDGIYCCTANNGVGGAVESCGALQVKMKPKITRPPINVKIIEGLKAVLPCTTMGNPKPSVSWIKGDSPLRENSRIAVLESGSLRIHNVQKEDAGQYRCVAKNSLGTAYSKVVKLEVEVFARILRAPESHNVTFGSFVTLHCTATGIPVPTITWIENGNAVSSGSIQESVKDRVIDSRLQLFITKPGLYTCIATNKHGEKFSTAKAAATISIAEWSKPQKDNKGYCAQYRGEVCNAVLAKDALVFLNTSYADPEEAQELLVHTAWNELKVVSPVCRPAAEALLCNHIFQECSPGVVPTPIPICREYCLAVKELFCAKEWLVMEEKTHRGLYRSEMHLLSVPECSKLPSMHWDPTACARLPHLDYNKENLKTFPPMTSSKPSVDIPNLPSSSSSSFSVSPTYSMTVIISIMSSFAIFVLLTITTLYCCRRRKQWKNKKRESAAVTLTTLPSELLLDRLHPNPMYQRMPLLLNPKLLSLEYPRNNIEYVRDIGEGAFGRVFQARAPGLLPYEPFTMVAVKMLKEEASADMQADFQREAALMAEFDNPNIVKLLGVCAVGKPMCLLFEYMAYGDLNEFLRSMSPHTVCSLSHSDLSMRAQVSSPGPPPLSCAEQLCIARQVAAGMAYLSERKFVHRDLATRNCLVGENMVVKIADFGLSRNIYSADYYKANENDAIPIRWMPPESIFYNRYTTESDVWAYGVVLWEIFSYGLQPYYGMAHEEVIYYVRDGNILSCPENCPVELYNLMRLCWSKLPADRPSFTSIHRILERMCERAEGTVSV

MYLK4 = biological target: T15, MYLK4 (Homo sapiens, UniProt Q86YV6); assay: HotSpot kinase assay; format: biochemical; details: read-out: % Enzyme Activity (relative to DMSO controls)
T15 construct: purchased Reaction Biology Corporation
T15 sequence (Q86YV6 whole entry): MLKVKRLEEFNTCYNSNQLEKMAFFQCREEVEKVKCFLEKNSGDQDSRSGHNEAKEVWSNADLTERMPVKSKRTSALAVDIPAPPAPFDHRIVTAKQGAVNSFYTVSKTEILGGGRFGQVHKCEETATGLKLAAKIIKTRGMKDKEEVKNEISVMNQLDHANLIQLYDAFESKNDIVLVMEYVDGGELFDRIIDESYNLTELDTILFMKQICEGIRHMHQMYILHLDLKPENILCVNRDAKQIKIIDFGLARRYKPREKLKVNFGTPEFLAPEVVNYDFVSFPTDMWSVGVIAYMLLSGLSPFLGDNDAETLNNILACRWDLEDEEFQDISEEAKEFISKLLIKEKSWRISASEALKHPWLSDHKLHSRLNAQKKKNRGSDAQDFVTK

p70S6Kb/RPS6KB2 = biological target: T16, p70S6Kb/RPS6KB2 (Homo sapiens, UniProt Q9UBS0); assay: HotSpot kinase assay; format: biochemical; details: read-out: % Enzyme Activity (relative to DMSO controls)
T16 construct: purchased Reaction Biology Corporation

PDK1/PDPK1 = biological target: T17, PDK1/PDPK1 (Homo sapiens, UniProt O15530); assay: biochemical
T17 construct: purchased Reaction Biology Corporation
T17 sequence (O15530 1-556): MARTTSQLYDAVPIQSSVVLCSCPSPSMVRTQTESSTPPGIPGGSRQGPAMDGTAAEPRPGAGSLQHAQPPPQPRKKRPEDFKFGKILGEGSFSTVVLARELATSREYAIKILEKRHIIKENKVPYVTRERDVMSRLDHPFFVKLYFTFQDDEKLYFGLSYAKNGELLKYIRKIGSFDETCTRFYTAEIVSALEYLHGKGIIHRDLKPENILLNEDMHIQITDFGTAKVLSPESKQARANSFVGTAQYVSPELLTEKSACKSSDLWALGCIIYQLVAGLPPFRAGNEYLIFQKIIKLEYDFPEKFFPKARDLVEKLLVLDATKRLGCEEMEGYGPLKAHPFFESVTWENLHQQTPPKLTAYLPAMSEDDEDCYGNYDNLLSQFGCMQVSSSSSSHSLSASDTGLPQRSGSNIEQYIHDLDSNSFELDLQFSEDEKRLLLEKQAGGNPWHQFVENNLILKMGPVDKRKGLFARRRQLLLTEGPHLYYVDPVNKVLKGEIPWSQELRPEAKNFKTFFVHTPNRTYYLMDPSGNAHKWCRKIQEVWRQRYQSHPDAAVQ

RIPK2 = biological target: T18, RIPK2 (Homo sapiens, UniProt O43353); assay: HotSpot kinase assay; format: biochemical; details: read-out: % Enzyme Activity (relative to DMSO controls)
T18 construct: purchased Reaction Biology Corporation

SRPK1 = biological target: T19, SRPK1 (Homo sapiens, UniProt Q96SB4); assay: HotSpot kinase assay; format: biochemical; details: read-out: % Enzyme Activity (relative to DMSO controls)
T19 construct: purchased Reaction Biology Corporation
T19 sequence (Q96SB4 whole entry): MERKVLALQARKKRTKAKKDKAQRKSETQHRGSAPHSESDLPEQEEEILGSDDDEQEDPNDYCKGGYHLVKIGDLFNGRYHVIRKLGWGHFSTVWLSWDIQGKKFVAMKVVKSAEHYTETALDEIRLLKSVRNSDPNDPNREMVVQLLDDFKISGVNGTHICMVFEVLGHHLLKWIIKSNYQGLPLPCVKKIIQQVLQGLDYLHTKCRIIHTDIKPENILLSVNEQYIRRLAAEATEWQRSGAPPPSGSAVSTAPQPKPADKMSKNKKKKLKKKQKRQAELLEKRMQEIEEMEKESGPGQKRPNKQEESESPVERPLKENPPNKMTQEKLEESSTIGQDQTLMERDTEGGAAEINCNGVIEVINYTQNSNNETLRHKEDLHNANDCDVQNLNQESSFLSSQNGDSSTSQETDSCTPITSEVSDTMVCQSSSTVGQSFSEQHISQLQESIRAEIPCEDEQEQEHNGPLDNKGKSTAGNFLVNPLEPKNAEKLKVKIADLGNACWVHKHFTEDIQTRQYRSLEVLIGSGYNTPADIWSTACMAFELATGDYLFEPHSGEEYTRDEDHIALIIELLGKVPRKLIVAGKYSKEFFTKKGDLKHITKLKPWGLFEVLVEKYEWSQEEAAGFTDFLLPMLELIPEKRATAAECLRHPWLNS

TYK1/LTK = biological target: T20, TYK1/LTK (Homo sapiens, UniProt P29376); assay: HotSpot kinase assay; format: biochemical; details: read-out: % Enzyme Activity (relative to DMSO controls)
T20 construct: purchased Reaction Biology Corporation

YES/YES1 = biological target: T21, YES/YES1 (Homo sapiens, UniProt P07947); assay: HotSpot kinase assay; format: biochemical; details: read-out: % Enzyme Activity (relative to DMSO controls)
T21 construct: purchased Reaction Biology Corporation

ZIPK/DAPK3 = biological target: T22, ZIPK/DAPK3 (Homo sapiens, UniProt O43293); assay: HotSpot kinase assay; format: biochemical; details: read-out: % Enzyme Activity (relative to DMSO controls)
T22 construct: purchased Reaction Biology Corporation

EIF2AK3 = biological target: T23, EIF2AK3 (Homo sapiens, UniProt Q9NZJ5); assay: HotSpot kinase assay; format: biochemical; details: read-out: % Enzyme Activity (relative to DMSO controls)
T23 construct: purchased Reaction Biology Corporation

HSV-2(G) = assay: synchronized infection (entry) assay, CaSki; format: cell-based
Protocol: To quantify viral entry, cells were synchronously infected by allowing virus to bind to cells at 4°C for 4 h, washed, and then transferred to 37 °C. CIMSS or control DMSO was added at the time of temperature shift. At indicated times post-temperature shift, the cells were treated with a low pH buffer to inactivate virus that had not penetrated, washed, overlaid with medium containing methyl cellulose and viral plaques were counted at 48 h. Entry was also assessed by immunoblotting nuclear extracts for VP16. […] Nuclear extracts were prepared after 1 h and analyzed by western blot with antibodies targeting VP16, histone H1 and golgin-97[5]. The non-nuclear fraction was also probed for golgin-97 as a positive control. […] After 1 or 4 h of incubation, the cells were fixed. Plasma membranes were stained using Image -IT^TM LIVE Plasma Membrane kit and nuclei were stained with DAPI (Thermo Fisher Scientific, Cat 134406). The percentage of GFP + nuclei was determined by counting ~200 cells over 3–4 fields. Images were obtained with Leica SP8 microscope (objective 63 × 1.4); xz images were captured with optical slice 0.6 µm, 25–30 slices per image.

[1] = cell proliferation and viability, ~50% confluent; details: human, cell proliferation and viability, odu as a percentage of the DMSO control, 120 h (Fig 1d source data)
[2] = tested on: Primary vaginal epithelial cells; assay: cell proliferation and viability, ~50% confluent; details: for cell proliferation and viability, odu as a percentage of the DMSO control: 120 h (Fig 1d source data)
[3] = read-out: % Enzyme Activity (relative to DMSO controls), 10µM

In the case of `CO[C@@H]1[C@H](N(C)C(=O)CCC(=O)NCc2cn(CCCS(=O)(=O)O)nn2)C[C@H]2O[C@]1(C)n1c3ccccc3c3c4c(c5c6ccccc6n2c5c31)C(=O)NC4` [CIMSS], the remaining activity at 10 µM (CDK2/cyclin O) is reported as 4.97%, the remaining activity at 10 µM (CDK6/cyclin D3) is reported as 56.8% and the remaining activity at 10 µM (DDR1) is reported as 0.98%. The remaining activity at 10 µM (DMPK2) was 10.9%, the IC50 (EGFR; Supplementary Table 1, read-out: IC50 (Molar concentration)) was 1610 nM and the remaining activity at 10 µM (EGFR; [3]) was 17.4%. For the same compound, the remaining activity at 10 µM (ERBB4/HER4) was 25%, the remaining activity at 10 µM (ERK2/MAPK1) was 75.3% and the remaining activity at 10 µM (ERN2/IRE2) was 6.47%. It also gave a remaining activity at 10 µM (FGR) of 1.68%, a remaining activity at 10 µM (GLK/MAP4K3) of 0.96% and a remaining activity at 10 µM (HIPK3) of 14.5%. It also gave a remaining activity at 10 µM (IKKa/CHUK) of 31.6%, a remaining activity at 10 µM (MLCK/MYLK) of 15.5% and a remaining activity at 10 µM (MUSK) of 3.33%. It also gave a remaining activity at 10 µM (MYLK4) of 6.48%, a remaining activity at 10 µM (p70S6Kb/RPS6KB2) of 3.38% and an IC50 (PDK1/PDPK1; Supplementary Table 1, PDPK1, read-out: IC50 (Molar concentration)) of 0.278 nM. The remaining activity at 10 µM (PDK1/PDPK1; [3]) was 4.24%, the inhibition at 10 µM (PDK1/PDPK1; read-out: inhibition of PDPK1) was over 75% and the remaining activity at 10 µM (RIPK2) was 41.7%. It also gave a remaining activity at 10 µM (SRPK1) of 9.17%, a remaining activity at 10 µM (TYK1/LTK) of 7.18% and a remaining activity at 10 µM (YES/YES1) of 1.4%. For the same compound, the remaining activity at 10 µM (ZIPK/DAPK3) was 6.48%, the remaining activity at 10 µM (EIF2AK3) was 61.6% and the “plaques counted at 48 h” value (HSV-2(G); 0.5 h post-temperature shift (Fig 3b source data)) was 49 and 51. The “plaques counted at 48 h” value (HSV-2(G); 1 h) was 48 and 46, the “plaques counted at 48 h” value (HSV-2(G); 2 h) was 52 and 37 and the viability at 120 h, 10 µM ([1]; 10 μM) was 102%. The viability at 120 h, 50 µM ([1]; 50 μM) was 93%, the “cell proliferation and viability, odu as a percentage of the DMSO control” value ([2]; 10 μM) was 99.5% and the “cell proliferation and viability, odu as a percentage of the DMSO control” value ([2]; 50 μM) was 91.8%. The cytotoxicity ([2]; 10 or 50 μM, up to 120 h) was “little or no cytotoxicity”.
